The target of one series is tetanus toxin (Clostridium tetani, UniProt P04958). The settings on record: cited from earlier work.
The next series deals with Desulfovibrio. In words: Antimicrobial susceptibility testing, CLSI serial two-fold plate dilution. The series is classed as cell-based.
The conditions of series [1]: cited from earlier work; for Absorption when given by the oral route / Penetration of the intestinal mucosa: oral.
Series [2] can be described thus: Open-label trial of oral vancomycin in children with regressive onset autism. The series is classed as in vivo, human. An excerpt:
To explore whether our index case's improvement represented a true therapeutic effect, institutional human investigation committee approval was obtained for an open-label trial in a narrowly defined subgroup of autistic children. Eleven children (10 males, 1 female; age range: 43-84 months) were enrolled. Inclusion criteria for the study were derived from our central hypothesis and index case characteristics. They include 1) Meets diagnostic criteria for Autistic Disorder (DSM IV 299.00); 2) Other genetic and medical diagnoses have been adequately evaluated and ruled out; 3) Definable, rapid onset after 12 months of age; 4) Antecedent antimicrobial use (<2 months of autism symptom onset); 5) Persistent loose stool history, with diarrhea onset before autism symptoms; 6) Symptoms for <4 years; 7) Child is 2-8 years of age; 8) No evidence of any significant medical problem that might complicate treatment such as renal, cardiac or pulmonary disease, severe enterocolitis (visible blood or pus in the stool), or chronic infection (e.g., tuberculosis); and 9) Clinically static for 3 months (no new neuroleptic, seizure, or other medications), with no elective changes during the study, and 10) No antimicrobial use for at least 2 months prior to entry into the study. All children had diarrhea and regressive onset of autistic features (occurring at a mean of 17.7±3.4 months) as previously defined in the literature.
The Developmental Profile II provided descriptive developmental levels to contrast with developmental age. […] The Childhood Autism Rating Scale (CARS) was also administered. The CARS is a 15-item behavioral rating scale developed to identify children with autism, and to distinguish them from developmentally handicapped children without the autism syndrome. Based upon CARS diagnostic categories, six children met the criteria for severe autism, two for moderate autism, and three for mild autism. The vancomycin dose was 500 mg/day given orally as a liquid (500 mg/6 ml), divided into 2 ml TID for eight weeks. This was followed by four weeks of oral treatment with a probiotic mixture of Lactobacillus acidophilus, L. bulgaricus, and Bifidobacterium bifidum (40×10^9 cfu/ml).
Two measures of potential improvement were examined: I) Children were videotaped for 30 minutes at baseline and once during therapy in a playroom environment. At each session, the child was directed to play with a series of puzzles, books, blocks, and dolls by the mother and then by the evaluator. At the end of the trial, a clinical child psychologist (who was provided with a brief explanation of our working hypothesis) compared coded, paired videotapes of 10 of the 11 children studied (video was not available for one child). The psychologist viewed each pair of tapes and scored them. […] 2) Behavior and communication analog rating scales were completed by the study physician at baseline, during therapy, and at follow-up in a manner similar to previously validated methods for other disease states. Results are presented as median scores to account for potential non-linear score increment.

Series [3] can be described thus: Index case: 12 week therapeutic trial of oral vancomycin. The series is classed as in vivo, human. The conditions noted are these: 125 mg QID oral, 12 weeks; person. The method, then: […] Diarrhea began after three 10 day courses of broad spectrum antimicrobials prescribed over a six week period for “chronic otitis media.” There was no blood or pus in the stool nor associated constitutional symptoms. There was profound behavioral and developmental deterioration, along with emergence of severe autistic features.
A 12 week therapeutic trial of oral vancomycin (125 mg QID) was begun with expanded observations by a pediatric neuropsychologist pre- and post-treatment. At baseline, the child was not on a special diet nor was […] taking any vitamin supplements. Three days after initiation of the vancomycin therapy, a hyperactivity pattern emerged which lasted for four days. […] became affectionate and relatively calm. […] promptly achieved toilet training and increased vocabulary. Follow-up behavioral observations after eight weeks of therapy noted an increase in on-task performance, compliance with parental requests, awareness of environmental surroundings, and persistence when engaging in positive activities. A significant reduction in repetitive and self-stimulatory behaviors was also noted. The child's educational therapies remained unchanged for both six months before and during the vancomycin trial. Shortly after vancomycin discontinuation, behavioral deterioration was observed. Though still improved over baseline, […] eventually lost most of the initial gains.

For a further series, the system named is clostridia. The settings on record: cited from earlier work.
The mark [4] stands for this setting: Desulfovibrio type strain 7757^T.
Where [5] appears, read: Desulfovibrio type strain 29098^T.

Values after ≈ are worked out from the molar mass of the structure shown. Bridge positions count the residues as written; N and C are the ends. Square brackets hold non-standard residues; d marks the D form. Peptide text beside a SMILES is read from it. * marks the point of attachment. Octanoyl(6-Me) = CCC(C)CCCCC(=O)*; Dab = NCC[CH](N)C(=O)O

Usually MIC stands for the smallest concentration in the dilution series that meets the test's criterion for growth inhibition.

Chain of tetanus toxin (P04958 whole entry, looked up): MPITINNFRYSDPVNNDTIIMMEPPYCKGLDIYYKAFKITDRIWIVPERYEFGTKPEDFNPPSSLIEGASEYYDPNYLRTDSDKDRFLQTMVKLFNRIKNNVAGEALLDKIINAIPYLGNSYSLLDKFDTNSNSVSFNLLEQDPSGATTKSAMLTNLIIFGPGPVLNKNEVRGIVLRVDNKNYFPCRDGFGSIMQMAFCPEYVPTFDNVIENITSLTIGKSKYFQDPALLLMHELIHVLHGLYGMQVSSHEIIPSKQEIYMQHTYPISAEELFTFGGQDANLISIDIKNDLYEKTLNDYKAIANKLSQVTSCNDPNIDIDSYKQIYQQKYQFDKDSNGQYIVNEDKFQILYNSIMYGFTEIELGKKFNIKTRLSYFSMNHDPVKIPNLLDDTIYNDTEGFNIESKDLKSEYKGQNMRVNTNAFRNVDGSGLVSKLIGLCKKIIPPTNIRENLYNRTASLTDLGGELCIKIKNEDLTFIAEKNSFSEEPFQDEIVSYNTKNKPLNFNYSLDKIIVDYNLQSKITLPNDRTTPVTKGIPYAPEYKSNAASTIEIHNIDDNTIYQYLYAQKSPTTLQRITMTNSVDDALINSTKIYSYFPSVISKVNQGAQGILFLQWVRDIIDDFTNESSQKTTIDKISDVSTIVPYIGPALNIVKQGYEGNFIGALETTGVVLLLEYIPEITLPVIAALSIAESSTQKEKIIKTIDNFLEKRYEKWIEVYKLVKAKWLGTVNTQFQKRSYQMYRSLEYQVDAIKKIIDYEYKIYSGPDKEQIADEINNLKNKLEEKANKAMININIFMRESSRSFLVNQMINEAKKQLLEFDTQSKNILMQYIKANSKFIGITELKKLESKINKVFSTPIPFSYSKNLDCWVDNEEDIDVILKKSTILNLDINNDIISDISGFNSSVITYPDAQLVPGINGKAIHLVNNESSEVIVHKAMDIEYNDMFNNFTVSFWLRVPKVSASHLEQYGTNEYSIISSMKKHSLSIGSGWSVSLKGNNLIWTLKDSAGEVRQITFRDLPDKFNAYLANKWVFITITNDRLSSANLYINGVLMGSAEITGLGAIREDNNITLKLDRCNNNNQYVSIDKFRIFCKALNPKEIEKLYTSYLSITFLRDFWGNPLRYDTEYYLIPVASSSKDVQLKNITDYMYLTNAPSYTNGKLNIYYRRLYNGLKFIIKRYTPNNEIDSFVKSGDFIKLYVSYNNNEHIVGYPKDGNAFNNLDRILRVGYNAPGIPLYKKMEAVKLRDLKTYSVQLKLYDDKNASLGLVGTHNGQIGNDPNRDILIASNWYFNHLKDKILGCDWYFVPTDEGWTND

With `C[C@H](CS)C(=O)N1CCC[C@H]1C(=O)O` [Captopril], the “Effect on tetanus toxin in vitro” value at tetanus toxin is given as “inactivates”.
`CCC(C)CCCCC(=O)NC(CCN)C(=O)NC(C(=O)NC(CCN)C(=O)NC1CCNC(=O)C(C(C)O)NC(=O)C(CCN)NC(=O)C(CCN)NC(=O)C(CC(C)C)NC(=O)C(Cc2ccccc2)NC(=O)C(CCN)NC1=O)C(C)O` (stereo not shown) [Polymyxin B] ({Octanoyl(6-Me)}-[Dab]T[Dab][Dab][Dab]FL[Dab][Dab]T; lactam 4-C; configuration not given here): the MIC is 256 µg/mL (≈ 213 µM) against Desulfovibrio (Desulfovibrio strain 4019); 256 µg/mL (≈ 213 µM) against Desulfovibrio (Desulfovibrio strain 8236); >512 µg/mL against Desulfovibrio (Desulfovibrio strain 8381); >512 µg/mL against Desulfovibrio (Desulfovibrio strain 8907); >512 µg/mL against Desulfovibrio (Desulfovibrio strain 8933); >512 µg/mL against Desulfovibrio (Desulfovibrio strain 8951). Moreover, the minimum inhibitory concentration (MIC) against Desulfovibrio (Desulfovibrio strain 9070) is >512 µg/mL; with Desulfovibrio (Desulfovibrio strain 9120), >512 µg/mL; in the series on Desulfovibrio (Desulfovibrio strain 9706), >512 µg/mL; in the series with Desulfovibrio (Desulfovibrio strain 9976), >512 µg/mL; against Desulfovibrio (Desulfovibrio strain 10831), 128 µg/mL (≈ 106 µM); against Desulfovibrio (Desulfovibrio strain 11081), 256 µg/mL (≈ 213 µM). Further, the MIC against Desulfovibrio (Desulfovibrio strain 11094) was 256 µg/mL (≈ 213 µM); with Desulfovibrio (Desulfovibrio strain 11232), >512 µg/mL; against Desulfovibrio (Desulfovibrio strain 11346) it was >512 µg/mL; against Desulfovibrio (Desulfovibrio strain 11378), 256 µg/mL (≈ 213 µM); against Desulfovibrio (Desulfovibrio strain 11437), >512 µg/mL; against Desulfovibrio (Desulfovibrio strain 11568), >512 µg/mL. Also, the MIC in the series with Desulfovibrio (Desulfovibrio strain 11623) was >512 µg/mL; in the series with Desulfovibrio (Desulfovibrio strain 11717), 256 µg/mL (≈ 213 µM); in the series with Desulfovibrio (Desulfovibrio strain 11789) it was 16 µg/mL (≈ 13.3 µM); in the series on Desulfovibrio (Desulfovibrio strain 11830), 128 µg/mL (≈ 106 µM); in the series on Desulfovibrio (Desulfovibrio strain 11949), >512 µg/mL; against Desulfovibrio (Desulfovibrio strain 12379), 8 µg/mL (≈ 6.65 µM). For the same molecule, the minimum inhibitory concentration (MIC) in the series on Desulfovibrio (Desulfovibrio strain 13966) was >512 µg/mL; in the series on Desulfovibrio (setting [4]), 256 µg/mL (≈ 213 µM); with Desulfovibrio (setting [5]) it was 256 µg/mL (≈ 213 µM). For the same molecule, the “Absorption when given by the oral route” value in series [1] is reported as “virtually unabsorbed”. In addition, the “Penetration of the intestinal mucosa” value in series [1] is “do not penetrate the intestinal mucosa”.
In the case of `CN[C@H](CC(C)C)C(=O)N[C@H]1C(=O)N[C@@H](CC(N)=O)C(=O)N[C@H]2C(=O)N[C@H]3C(=O)N[C@H](C(=O)N[C@H](C(=O)O)c4cc(O)cc(O)c4-c4cc3ccc4O)[C@H](O)c3ccc(c(Cl)c3)Oc3cc2cc(c3O[C@@H]2O[C@H](CO)[C@@H](O)[C@H](O)[C@H]2O[C@H]2C[C@](C)(N)[C@H](O)[C@H](C)O2)Oc2ccc(cc2Cl)[C@H]1O` [Vancomycin], the MIC is > 512 µg/mL against Desulfovibrio (Desulfovibrio, Desulfovibrio strain 4019); 256 µg/mL (≈ 177 µM) in the series on Desulfovibrio (Desulfovibrio, Desulfovibrio strain 8236); > 512 µg/mL with Desulfovibrio (Desulfovibrio, Desulfovibrio strain 8381); > 512 µg/mL with Desulfovibrio (Desulfovibrio, Desulfovibrio strain 8907); > 512 µg/mL with Desulfovibrio (Desulfovibrio, Desulfovibrio strain 8933); > 512 µg/mL in the series with Desulfovibrio (Desulfovibrio, Desulfovibrio strain 8951). Moreover, the minimum inhibitory concentration (MIC) against Desulfovibrio (Desulfovibrio, Desulfovibrio strain 9070) was > 512 µg/mL; against Desulfovibrio (Desulfovibrio, Desulfovibrio strain 9120), > 512 µg/mL; in the series with Desulfovibrio (Desulfovibrio, Desulfovibrio strain 9706), > 512 µg/mL; against Desulfovibrio (Desulfovibrio, Desulfovibrio strain 9976), 512 µg/mL (≈ 353 µM); with Desulfovibrio (Desulfovibrio, Desulfovibrio strain 10831) it was 256 µg/mL (≈ 177 µM); in the series on Desulfovibrio (Desulfovibrio, Desulfovibrio strain 11081), 256 µg/mL (≈ 177 µM). For the same molecule, the MIC against Desulfovibrio (Desulfovibrio, Desulfovibrio strain 11094) is > 512 µg/mL; with Desulfovibrio (Desulfovibrio, Desulfovibrio strain 11232), > 512 µg/mL; with Desulfovibrio (Desulfovibrio, Desulfovibrio strain 11346), > 512 µg/mL; against Desulfovibrio (Desulfovibrio, Desulfovibrio strain 11378), 256 µg/mL (≈ 177 µM); in the series on Desulfovibrio (Desulfovibrio, Desulfovibrio strain 11437), > 512 µg/mL; against Desulfovibrio (Desulfovibrio, Desulfovibrio strain 11568), > 512 µg/mL. Also, the minimal inhibitory concentration (MIC) in the series on Desulfovibrio (Desulfovibrio, Desulfovibrio strain 11623) is > 512 µg/mL; in the series with Desulfovibrio (Desulfovibrio, Desulfovibrio strain 11717) it was > 512 µg/mL; in the series on Desulfovibrio (Desulfovibrio, Desulfovibrio strain 11789), > 512 µg/mL; against Desulfovibrio (Desulfovibrio, Desulfovibrio strain 11830), > 512 µg/mL; in the series on Desulfovibrio (Desulfovibrio, Desulfovibrio strain 11949), > 512 µg/mL; in the series on Desulfovibrio (Desulfovibrio, Desulfovibrio strain 12379), 256 µg/mL (≈ 177 µM). Besides, the MIC was > 512 µg/mL against Desulfovibrio (Desulfovibrio, Desulfovibrio strain 13966); > 512 µg/mL with Desulfovibrio (Desulfovibrio, Desulfovibrio type strain 7757^T); 1 µg/mL (≈ 0.69 µM) against Desulfovibrio (Desulfovibrio, Desulfovibrio type strain 29098^T). Besides, in the series on Desulfovibrio (discussion of Table 14), the “MIC against Desulfovibrio, summary in words” value is recorded as “not very active on a weight basis”. Also, the “Blinded assessment of coded, paired videotapes: children with improvement during therapy” value in series [2] (500 mg/day orally for eight weeks, no change in one, possible deterioration in one) is on record as “eight of ten”. Besides, the “Time to substantial behavioral deterioration after discontinuance” value in series [2] (reported by most parents, telephone follow-up) is “two”. For the same molecule, the “Analog ratings at long-term follow-up” value in series [2] (two to eight months after discontinuance, in all but one child) was “returned towards baseline”. In addition, the “Analog rating scale, communication” value in series [2] (unblinded, group as a whole, Wilcoxon Signed Ranks Z=2.9 p=0.003) is reported as “improvement”. The “Analog rating scale, behavior” value in series [2] (unblinded, group as a whole, Wilcoxon Signed Ranks Z=-2.9, p=0.003) is given as “improvement”. For the same molecule, in series [2] (within three days of initiating antibiotic treatment, eleven children enrolled), the “Children with brief (1-4 days) period of hyperactivity” value is “six”. Also, the “Clinical outcome of index case” value in series [3] was “rapid and dramatic clinical improvement”. The “Fecal levels after oral administration” value in series [1] (oral administration) is 2-5,000 mcg/gm.
Turning to Colistin, the MIC in the series on Desulfovibrio (Desulfovibrio strain 4019), against Desulfovibrio (Desulfovibrio strain 8236), against Desulfovibrio (Desulfovibrio strain 8381), against Desulfovibrio (Desulfovibrio strain 8907), against Desulfovibrio (Desulfovibrio strain 8933) and against Desulfovibrio (Desulfovibrio strain 8951) was >512 µg/mL throughout. In addition, the minimum inhibitory concentration (MIC) against Desulfovibrio (Desulfovibrio strain 9070), against Desulfovibrio (Desulfovibrio strain 9120), in the series on Desulfovibrio (Desulfovibrio strain 9706), in the series on Desulfovibrio (Desulfovibrio strain 9976), against Desulfovibrio (Desulfovibrio strain 10831) and with Desulfovibrio (Desulfovibrio strain 11081) was >512 µg/mL throughout. In addition, the MIC against Desulfovibrio (Desulfovibrio strain 11094), in the series with Desulfovibrio (Desulfovibrio strain 11232), with Desulfovibrio (Desulfovibrio strain 11346), in the series on Desulfovibrio (Desulfovibrio strain 11378), with Desulfovibrio (Desulfovibrio strain 11437) and with Desulfovibrio (Desulfovibrio strain 11568) was >512 µg/mL each time. The minimum inhibitory concentration (MIC) against Desulfovibrio (Desulfovibrio strain 11623), in the series with Desulfovibrio (Desulfovibrio strain 11717), against Desulfovibrio (Desulfovibrio strain 11789), against Desulfovibrio (Desulfovibrio strain 11830), in the series on Desulfovibrio (Desulfovibrio strain 11949) and with Desulfovibrio (Desulfovibrio strain 12379) was >512 µg/mL in each case. For the same molecule, the MIC against Desulfovibrio (Desulfovibrio strain 13966), against Desulfovibrio (setting [4]) and against Desulfovibrio (setting [5]) was >512 µg/mL each time. Besides, the “Absorption when given by the oral route” value in series [1] was “virtually unabsorbed”. In addition, in series [1], the “Penetration of the intestinal mucosa” value was “do not penetrate the intestinal mucosa”.
For the molecule ramoplanin, in the series with clostridia, the Activity against clostridia result is “very good activity”. For the same molecule, the “Systemic absorption in humans” value in series [1] (humans) was “not detectably absorbed”.

Source of the values: patent publication US11173150B2, “Method for diagnosing, preventing, and treating neurological diseases” (United States Government As Represented By The Department …, priority 2010, dated 2021).
